Structures are written as SMILES.

The species entered for data set [1] is Mus musculus. Description: Inhibitory concentration of compound on nitric oxide (NO) production in lipopolysaccharide activated mouse peritoneal macrophages. It is filed as functional.
Data set [2] is filed under the species Mus musculus. Description: Percent inhibition of nitric oxide (NO) production in lipopolysaccharide activated mouse peritoneal macrophages at 100 uM of compound. It counts as functional.
Data set [3] in a line: Concentration with cytotoxic effect on mouse peritoneal macrophages.

For `C=CC(OC)c1ccc(OC)cc1` (configuration not stated), the IC50 in the data set filed under Mus musculus [1] (read-out: IC50) is above 100 µM. For the same molecule, the Inhibition in the data set listed under Mus musculus [2] is 22%. For `O=C(O)/C=C/c1ccc(O)c(O)c1` [CAFFEIC ACID], in the data set filed under Mus musculus [1] (read-out: IC50), the IC50 was above 100 µM. Moreover, the Inhibition in the data set listed under Mus musculus [2] amounted to 15%. For `C=CC(OC(=O)CC)c1ccc(OC(=O)CC)cc1` (configuration not stated), the IC50 in the data set listed under Mus musculus [1] (read-out: IC50) was found to be 30 µM. Same read-out and setting: to `C=CC(OC(C)=O)c1ccccc1OC(C)=O` (configuration not stated) belongs 3.2 µM; to `O=C/C=C/c1ccc(O)cc1` [p-HYDROXYCINNAMALDEHYDE], 20 µM.

On to `C=CCc1ccc(O)cc1` [CHAVICOL], for which, in the data set listed under Mus musculus [1] (read-out: IC50), the concentration for half-maximal inhibition (IC50) was above 100 µM. The Inhibition in the data set listed under Mus musculus [2] turned out to be 43%.

With `C=CCC(O)c1ccc(O)cc1` (configuration not stated), in the data set filed under Mus musculus [1] (read-out: IC50), the 50% inhibitory concentration (IC50) is above 100 µM. Moreover, the Inhibition in the data set listed under Mus musculus [2] stood at 13%.

Take `C=C[C@H](OC(C)=O)c1ccccc1`: in the data set filed under Mus musculus [1] (read-out: IC50), the IC50 is above 100 µM. The Inhibition in the data set filed under Mus musculus [2] is 20%. Take `CC[C@H](O)c1ccccc1`: the IC50 in the data set listed under Mus musculus [1] (read-out: IC50) was above 100 µM. In addition, in the data set filed under Mus musculus [2], the Inhibition is given as -4%.

On to `C=C[C@H](O)c1ccc(OC(C)=O)cc1`, for which, in the data set listed under Mus musculus [1] (read-out: IC50), the IC50 was above 100 µM. Moreover, in the data set listed under Mus musculus [2], the Inhibition is 46%. Regarding `O=C(O)/C=C/c1ccccc1O` [O-COUMARIC ACID], the half-maximal inhibitory concentration (IC50) in the data set listed under Mus musculus [1] (read-out: IC50) is above 100 µM. Also, the Inhibition in the data set filed under Mus musculus [2] is given as 7%. Taken in the same sequence, the figures for `OC/C=C/c1ccc(O)cc1` were above 100 µM and 24%. In the case of `O=C(/C=C/c1ccc(O)c(O)c1)OCCc1ccccc1` [CAFFEIC ACID PHENETHYL ESTER], the half-maximal inhibitory concentration (IC50) in the data set listed under Mus musculus [1] (read-out: IC50) came to 15 µM. In the case of `CC[C@H](OC(C)=O)c1ccccc1`, in the data set listed under Mus musculus [1] (read-out: IC50), the IC50 was above 100 µM. Besides, the Inhibition in the data set filed under Mus musculus [2] was found to be 25%. `CCC(OC(C)=O)c1ccccc1OC(C)=O` (configuration not stated): the IC50 in the data set listed under Mus musculus [1] (read-out: IC50) is 99 µM. For the molecule `C=CC(OC(C)=O)c1cccc(O)c1` (configuration not stated), the IC50 in the data set listed under Mus musculus [1] (read-out: IC50) is above 100 µM. In the data set filed under Mus musculus [2], the Inhibition is 25%.

For `C=C[C@H](OC(C)=O)c1ccc(OC(C)=O)cc1` [1'-ACETOXYCHAVICOL ACETATE], the half-inhibitory concentration (IC50) in the data set filed under Mus musculus [1] (read-out: IC50) is 2.3 µM. Regarding `CCC(OC(C)=O)c1ccc(OC(C)=O)cc1` (configuration not stated), the IC50 in the data set filed under Mus musculus [1] (read-out: IC50) amounted to 10 µM. Consider `C=CCc1ccc(OC)c(OC)c1` [METHYLEUGENOL], for which the IC50 in the data set listed under Mus musculus [1] (read-out: IC50) is above 100 µM. Also, the Inhibition in the data set listed under Mus musculus [2] is 1%. Taken in the same sequence, the figures for `C=CCc1ccc(O[C@@H]2O[C@H](CO)[C@@H](O)[C@H](O)[C@H]2O)cc1` were above 100 µM and 6%.

As for `C=CC(O)c1ccc(O)cc1` (configuration not stated), the IC50 in the data set filed under Mus musculus [1] (read-out: IC50) is above 100 µM. Also, the Inhibition in the data set filed under Mus musculus [2] is recorded as -1%. In the case of `O=C(O)/C=C/c1ccccc1` [CINNAMIC ACID], the IC50 in the data set filed under Mus musculus [1] (read-out: IC50) is above 100 µM. In addition, the Inhibition in the data set listed under Mus musculus [2] is given as 15%. For `CCC(=O)Oc1ccc(C(CC)OC(=O)CC)cc1` (configuration not stated), the IC50 in the data set filed under Mus musculus [1] (read-out: IC50) amounted to 59 µM. For the molecule `C=C[C@@H](OC(C)=O)c1ccc(OC(C)=O)cc1`, in the data set filed under Mus musculus [1] (read-out: IC50), the IC50 was 8.2 µM. On the same count and under the same terms, with `CC(=O)OC/C=C/c1ccc(OC(C)=O)cc1` the figure was 19 µM. On to `C=C[C@H](OC(C)=O)c1ccc(OC(C)=O)c(OC)c1`, for which the concentration for half-maximal inhibition (IC50) in the data set filed under Mus musculus [1] (read-out: IC50) is 11 µM.

With `CC(C)=O` [ACETONE], the IC50 in the data set listed under Mus musculus [1] is 7.3 µg/mL. Turning to `CC(=O)OC/C=C/c1ccc(O)cc1`, the IC50 in the data set filed under Mus musculus [1] (read-out: IC50) was determined as 72 µM. Same read-out and setting: to `C=CCC(OC(C)=O)c1ccc(OC(C)=O)cc1` (configuration not stated) belongs 9.2 µM.

On to `C=CC(O)c1cccc(O)c1` (configuration not stated), for which, in the data set filed under Mus musculus [1] (read-out: IC50), the 50% inhibitory concentration (IC50) was above 100 µM. The Inhibition in the data set filed under Mus musculus [2] is 1%. With `C=CCc1ccc(O)c(O)c1` [HYDROXYCHAVICOL], the IC50 in the data set filed under Mus musculus [1] (read-out: IC50) worked out at 15 µM. As to `C=CCc1ccc(O)c(OC)c1` [EUGENOL], the IC50 in the data set listed under Mus musculus [1] (read-out: IC50) is above 100 µM. In addition, the Inhibition in the data set filed under Mus musculus [2] is given as 15%. As for `COc1ccc(/C=C/C(=O)O)cc1` [4-METHOXYCINNAMIC ACID], the IC50 in the data set listed under Mus musculus [1] (read-out: IC50) is above 100 µM. Moreover, the Inhibition in the data set filed under Mus musculus [2] was found to be 27%.

On to `COc1ccc(/C=C/C(=O)O)cc1OC` [O,O'-DIMETHYLCAFFEIC ACID], for which the concentration for half-maximal inhibition (IC50) in the data set filed under Mus musculus [1] (read-out: IC50) is above 100 µM. The Inhibition in the data set filed under Mus musculus [2] is on record as 1%. On to `C=CC(O)c1ccc(OC)cc1` (configuration not stated), for which the half-maximal inhibitory concentration (IC50) in the data set listed under Mus musculus [1] (read-out: IC50) was above 30 µM. The same molecule displayed a Cytotoxicity in data set [3] of 100 µM. The Inhibition in the data set listed under Mus musculus [2] was -3%. For the molecule `CCCC(OC(C)=O)c1ccc(OC(C)=O)cc1` (configuration not stated), the IC50 in the data set filed under Mus musculus [1] (read-out: IC50) was found to be 47 µM. As to `CCC(O)c1ccc(O)cc1` (configuration not stated), the 50% inhibitory concentration (IC50) in the data set filed under Mus musculus [1] (read-out: IC50) was above 100 µM. Also, the Inhibition in the data set listed under Mus musculus [2] was 11%. Take `C=CCc1ccc(OC(C)=O)cc1`: the half-maximal inhibitory concentration (IC50) in the data set listed under Mus musculus [1] (read-out: IC50) was determined as 65 µM. On to `C=CC(OC(C)=O)c1cccc(OC(C)=O)c1` (configuration not stated), for which, in the data set filed under Mus musculus [1] (read-out: IC50), the IC50 was above 100 µM. For the same molecule, the Inhibition in the data set filed under Mus musculus [2] worked out at 20%. As for `C=CC(OC(C)=O)c1ccc(OC(C)=O)cc1` (configuration not stated), in the data set filed under Mus musculus [1] (read-out: IC50), the IC50 was 4.9 µM. As to `N=C(N)NCCSSCCNC(=N)N` [GUANIDINOETHYLDISULFIDE], the 50% inhibitory concentration (IC50) in the data set filed under Mus musculus [1] (read-out: IC50) came out at 7.4 µM. For `C=CC(O)c1ccccc1O` (configuration not stated), in the data set listed under Mus musculus [1] (read-out: IC50), the half-maximal inhibitory concentration (IC50) was above 100 µM. For the same molecule, the Inhibition in the data set filed under Mus musculus [2] came out at 0%.

Consider `COc1cc(/C=C/C(=O)O)cc(OC)c1O` [SINAPINATE], for which, in the data set listed under Mus musculus [1] (read-out: IC50), the IC50 is above 100 µM. In the data set filed under Mus musculus [2], the Inhibition worked out at 27%.

Consider `O=C(O)/C=C/c1cccc(O)c1`, for which the half-maximal inhibitory concentration (IC50) in the data set filed under Mus musculus [1] (read-out: IC50) was above 100 µM. In the data set listed under Mus musculus [2], the Inhibition is on record as 3%. Taken in the same sequence, the figures for `C=C[C@H](O)c1ccccc1` were above 100 µM and 19%.

Source of the values: ChEMBL document CHEMBL1143515, “Structure-activity relationships of 1'S-1'-acetoxychavicol acetate for inhibitory effect on NO production in lipopolysaccharide-activated mouse peritoneal macrophages” (Bioorg Med Chem Lett, 2005).
